Source: US11111245B2, “Derivatives of N-cycloalkyl/heterocycloalkyl-4-(imidazo[1,2-a]pyridine)pyrimidin-2-amine as therapeutic agents” (Aucentra Therapeutics Pty Ltd, priority 2017, dated 2021)

Legend:
CDK4/D1 = CDK4/D1 (Homo sapiens, UniProt P11802); experiment: ADP Glo Kinase assay CDK4/D1; assay type: biochemical; settings: CDK4D1; compound at 10 μM; read-out: residual activity (%) at 10 μM CDK4D1
Description: (§1) Eurofins Pharma Discovery or Reaction Biology Corporation Kinase Profiler services were used to measure inhibition of CDKs and other kinases by radiometric assay. Inhibition of CDK4/D1, CDK6/D3 and CDK9/T1 were also determined in-house using ADP Glo Kinase assays (Promega Corporation, Madison, USA). Briefly, the kinase reaction for CDK4/D1 and CDK6/D3 was performed with kinase reaction buffer ([…] Tris base pH 7.5, 20 mM MgCl2, 0.4 mM DTT), 0.1 mg/ml BSA and RB-CTF substrate (retinoblastoma protein 1 C-terminal fraction). For CDK9/CyclinT1, the kinase reaction was performed with standard assay buffer and Kinase Dilution Buffer and RBER-IRStide substrate. Serial dilutions of 1:3 were prepared for test compounds for 10 concentrations (from 10 μM to 0.5 nM). The kinase reactions were started by addition of ATP, incubated for 40 min at 37° C. and then stopped by adding 10 μL of ADP Glo reagent. After incubation at room temperature in the dark for 40 min, 20 μL of kinase detection reagent was added per well and incubated for 40 min. Luminescence was measured using an EnVision Multilabel plate reader (PerkinElmer, Buckinghamshire, UK). Positive and negative controls were performed in the presence and absence of CDK kinases, respectively. Half-maximal inhibition (IC50) values were calculated using a 4-parameter logistic non-linear regression model with Graphpad prism (Version 6.0). Apparent inhibition constants (Ki) values were calculated from Km (ATP) and IC50 values for the respective kinases.

CDK9/T1 = CDK9/T1 (Homo sapiens, UniProt P50750); experiment: ADP Glo Kinase assay CDK9/T1; assay type: biochemical; settings: CDK9T1; read-out: CDK inhibition, Ki (μM) CDK9T1
Sequence of CDK9/T1 (P50750 whole entry): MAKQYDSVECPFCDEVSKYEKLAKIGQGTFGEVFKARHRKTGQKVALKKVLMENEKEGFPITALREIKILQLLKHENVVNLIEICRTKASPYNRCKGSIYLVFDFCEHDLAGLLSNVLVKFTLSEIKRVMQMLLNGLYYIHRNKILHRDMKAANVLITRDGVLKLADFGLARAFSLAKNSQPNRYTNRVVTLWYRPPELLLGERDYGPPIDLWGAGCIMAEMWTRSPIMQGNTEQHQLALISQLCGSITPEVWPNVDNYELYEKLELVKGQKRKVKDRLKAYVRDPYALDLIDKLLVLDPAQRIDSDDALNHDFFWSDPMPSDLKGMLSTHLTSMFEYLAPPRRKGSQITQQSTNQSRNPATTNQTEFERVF
Sequence of CDK9/T1 (O60563 whole entry partner): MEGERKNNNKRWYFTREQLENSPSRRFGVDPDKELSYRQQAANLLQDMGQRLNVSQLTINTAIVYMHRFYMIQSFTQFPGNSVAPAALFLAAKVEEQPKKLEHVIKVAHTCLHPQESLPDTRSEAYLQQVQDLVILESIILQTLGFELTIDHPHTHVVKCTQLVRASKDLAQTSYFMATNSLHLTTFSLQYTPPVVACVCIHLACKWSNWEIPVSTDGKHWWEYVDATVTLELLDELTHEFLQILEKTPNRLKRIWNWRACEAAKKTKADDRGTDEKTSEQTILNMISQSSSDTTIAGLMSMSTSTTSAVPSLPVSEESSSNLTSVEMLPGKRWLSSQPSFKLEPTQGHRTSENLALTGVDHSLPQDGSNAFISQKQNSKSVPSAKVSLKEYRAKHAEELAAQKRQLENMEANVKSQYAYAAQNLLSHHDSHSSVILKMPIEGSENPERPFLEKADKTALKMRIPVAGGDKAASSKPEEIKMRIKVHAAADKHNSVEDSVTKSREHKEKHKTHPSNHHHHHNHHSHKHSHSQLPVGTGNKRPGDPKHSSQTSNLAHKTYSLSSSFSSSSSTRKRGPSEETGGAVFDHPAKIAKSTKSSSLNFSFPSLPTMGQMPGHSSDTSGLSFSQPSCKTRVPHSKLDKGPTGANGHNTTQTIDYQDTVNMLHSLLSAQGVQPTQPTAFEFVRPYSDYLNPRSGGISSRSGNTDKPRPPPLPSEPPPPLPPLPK
Description: as §1

CDKs and other kinases [1] = molecular target: T1, CDKs and other kinases (Homo sapiens, UniProt P06493); experiment: Radiometric kinase assay (Eurofins Pharma Discovery or Reaction Biology Corporation Kinase Profiler); assay type: biochemical; settings: CDK1B; for remaining activity at 10 µM: compound at 10 μM, read-out: residual activity (%) at 10 μM CDK1B; for Ki: read-out: CDK inhibition, Ki (μM) CDK1B
T1 construct: other: CDK1B; residual activity (%) at 10 μM CDK1B; compound at 10 μM
T1 sequence (P06493 whole entry): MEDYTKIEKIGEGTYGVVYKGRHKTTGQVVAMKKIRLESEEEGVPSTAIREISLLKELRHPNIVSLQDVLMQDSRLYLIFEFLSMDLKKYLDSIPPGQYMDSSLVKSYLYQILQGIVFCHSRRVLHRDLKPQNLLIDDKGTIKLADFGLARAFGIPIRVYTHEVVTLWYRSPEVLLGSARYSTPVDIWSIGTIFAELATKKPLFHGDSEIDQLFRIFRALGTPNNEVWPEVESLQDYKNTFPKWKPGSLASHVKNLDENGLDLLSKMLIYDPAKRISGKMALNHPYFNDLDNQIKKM
Description: as §1

CDKs and other kinases [2] = molecular target: T2, CDKs and other kinases (Homo sapiens, UniProt P24941); experiment: as above; assay type: biochemical; settings: CDK2A; for remaining activity at 10 µM: compound at 10 μM, read-out: residual activity (%) at 10 μM CDK2A; for Ki: read-out: CDK inhibition, Ki (μM) CDK2A
T2 construct: other: CDK2A; residual activity (%) at 10 μM CDK2A; compound at 10 μM
Description: as §1

CDKs and other kinases [3] = molecular target: T3, CDKs and other kinases (Homo sapiens, UniProt P50613); experiment: as above; assay type: biochemical; settings: CDK7H; for remaining activity at 10 µM: compound at 10 μM, read-out: residual activity (%) at 10 μM CDK7H; for Ki: read-out: CDK inhibition, Ki (μM) CDK7H
T3 construct: other: CDK7H; residual activity (%) at 10 μM CDK7H; compound at 10 μM
T3 sequence (P50613 whole entry): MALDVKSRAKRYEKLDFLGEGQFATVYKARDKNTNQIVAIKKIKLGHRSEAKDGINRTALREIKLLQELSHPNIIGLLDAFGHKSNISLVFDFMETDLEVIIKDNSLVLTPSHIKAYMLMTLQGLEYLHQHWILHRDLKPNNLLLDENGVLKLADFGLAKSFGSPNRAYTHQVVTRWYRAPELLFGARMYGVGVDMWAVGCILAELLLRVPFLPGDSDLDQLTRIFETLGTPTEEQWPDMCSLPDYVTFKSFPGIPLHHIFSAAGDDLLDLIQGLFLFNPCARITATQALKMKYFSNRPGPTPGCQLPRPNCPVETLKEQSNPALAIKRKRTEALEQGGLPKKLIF
Description: as §1

leukemia cell lines = experiment: Resazurin cell viability assay on leukemia cell lines (72 h growth inhibition, GI50); assay type: cell-based; settings: Homo sapiens, MV4-11 cells
Description: Compounds from Example 1 were subjected to a standard MTT (3-(4,5-dimethylthiazol-2-yl)-2,5-diphenyltetrazolium bromide) and resazurin assays on solid tumour cell lines and leukemia cell lines, respectively, as previously reported (Wang S et al., J Med Chem 47:1662-1675, 2004 and Diab S. et al. CheMedChem 9:962-972, 2014). Compound concentrations required to inhibit 50% of cell growth (GI50) were calculated using non-linear regression analysis.

Sequence of CDK4/D1 (P11802 whole entry): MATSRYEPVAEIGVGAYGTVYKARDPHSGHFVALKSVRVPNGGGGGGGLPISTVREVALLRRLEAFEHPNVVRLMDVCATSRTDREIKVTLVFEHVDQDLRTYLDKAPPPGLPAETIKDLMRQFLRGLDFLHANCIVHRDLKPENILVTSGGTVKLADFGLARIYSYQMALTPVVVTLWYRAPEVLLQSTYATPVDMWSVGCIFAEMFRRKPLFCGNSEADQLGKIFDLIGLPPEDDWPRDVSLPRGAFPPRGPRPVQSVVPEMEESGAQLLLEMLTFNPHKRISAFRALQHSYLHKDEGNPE
Sequence of CDK4/D1 (P24385 whole entry partner): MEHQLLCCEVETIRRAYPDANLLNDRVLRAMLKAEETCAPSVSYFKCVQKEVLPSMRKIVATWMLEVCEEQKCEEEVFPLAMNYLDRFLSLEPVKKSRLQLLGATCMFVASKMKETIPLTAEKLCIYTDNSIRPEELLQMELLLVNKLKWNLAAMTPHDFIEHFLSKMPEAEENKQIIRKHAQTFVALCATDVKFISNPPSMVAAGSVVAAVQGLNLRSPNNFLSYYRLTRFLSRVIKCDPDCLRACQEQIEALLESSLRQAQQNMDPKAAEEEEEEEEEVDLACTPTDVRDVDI

Compound | remaining activity at 10 µM (CDK4/D1) [%] | Ki (CDK9/T1) [µM] | remaining activity at 10 µM (CDKs and other kinases [1]) [%] | remaining activity at 10 µM (CDKs and other kinases [2]) [%] | remaining activity at 10 µM (CDKs and other kinases [3]) [%] | GI50 (leukemia cell lines) [µM] | Ki (CDKs and other kinases [1]) [µM] | Ki (CDKs and other kinases [3]) [µM] | Ki (CDKs and other kinases [2]) [µM]
COCCN[C@H]1CC[C@@H](Nc2ncc(C)c(-c3cnc4ccc(-c5ccccc5)cn34)n2)CC1 [Compound 130, (1s,4s)-N^1-(2-Methoxyethyl)-N^4-(5-methyl-4-(6-phenylimidazo[1,2-a]pyridin-3-yl)pyrimidin-2-yl) cyclohexane-1,4-diamine] | 23 | 1.12 | 25 | 23 | 40 | 0.172 ± 0.001 | – | – | –
CN1CCC(Nc2ncc(F)c(-c3cnc4ccc(-c5ccccc5)cn34)n2)CC1 [Compound 144, 5-Fluoro-N-(1-Methylpiperidin-4-yl)-4-(6-phenylimidazo [1,2-a]pyridin-3-yl)pyrimidin-2-amine] | 20 | 0.138 | – | 8 | – | 0.005 ± 0.003 | 0.047 | 0.072 | –
Fc1cnc(N[C@H]2CC[C@H](N3CCCC3)CC2)nc1-c1cnc2ccc(-c3ccccc3)cn12 [Compound 137, 5-Fluoro-4-(6-phenylimidazo[1,2-a]pyridin-3-yl)-N-((1r,4r)-4-(pyrrolidin-1-yl)cyclohexyl)pyrimidin-2-amine] | 7 | 0.003 | 3 | 0 | – | < 0.01 | – | 0.04 | –
Cc1cnc(N[C@H]2CC[C@H](C)CC2)nc1-c1cnc2ccc(Nc3cncnc3)cn12 [Compound 152, 3-(5-Methyl-2-(((1r,4r)-4-methylcyclohexyl)amino)pyrimidin-4-yl)-N-(pyrimidin-5-yl)imidazo[1,2-a]pyridin-6-amine] | 20 | 0.181 | 34 | 5 | 55 | 2.86 ± 0.29 | – | – | –
COc1cnc(N[C@H]2CC[C@H](N)CC2)nc1-c1cnc2ccc(-c3ccccc3)cn12 [Compound 89, (1r,4r)-N^1-(5-Methoxy-4-(6-phenylimidazo[1,2-a]pyridin-3-yl)pyrimidin-2-yl)cyclohexane-1,4-diamine] | 21 | 0.027 | 10 | 7 | 12 | 0.003 ± 0.001 | – | – | –
Cc1cnc(N[C@H]2CC[C@H](NCC(N)=O)CC2)nc1-c1cnc2ccc(Nc3cncnc3)cn12 [Compound 153, 2-(((1r,4r)-4-((5-Methyl-4-(6-(pyrimidin-5-ylamino)imidazo[1,2-a]pyridin-3-yl)pyrimidin-2-yl)amino)cyclohexyl)amino)acetamide] | 0 | 0.01 | – | 14 | 49 | 9.32 ± 0.73 | 0.632 | – | –
Cc1cnc(N[C@H]2CC[C@H](N)CC2)nc1-c1cnc2ccc(Nc3ccccn3)cn12 [Compound 128, (1r,4r)-N^1-(5-Methyl-4-(6-(pyridin-2-ylamino)imidazo [1,2-a]pyridin-3-yl)pyrimidin-2-yl)cyclohexane-1,4-diamine] | 38 | 0.31 | 45 | – | 34 | 0.068 ± 0.006 | – | – | 0.706
CC(C)(C)OC(=O)N1CCC(Nc2ncc(F)c(-c3cnc4ccccn34)n2)CC1 [Compound 20, tert-Butyl 4-((5-fluoro-4-(imidazo[1,2-a]pyridin-3-yl)pyrimidin-2-yl)amino)piperidine-1-carboxylate] | 29 | 0.829 | 56 | 54 | – | 0.092 ± 0.01 | – | 1.75 | –
Cc1cnc(N[C@H]2CC[C@@H](N3CCC3)CC2)nc1-c1cnc2ccc(-c3ccccc3)cn12 [Compound 136, N-((1s,4s)-4-(Azetidin-1-yl)cyclohexyl)-5-methyl-4-(6-phenylimidazo[1,2-a]pyridin-3-yl)pyrimidin-2-amine] | 48 | 2.77 | 22 | 59 | 36 | 0.297 ± 0.001 | – | – | –
Cc1cnc(N[C@H]2CC[C@H](N3CCCC3)CC2)nc1-c1cnc2ccc(Nc3cncnc3)cn12 [Compound 142, 3-(5-Methyl-2-(((1r,4r)-4-(pyrrolidin-1-yl)cyclohexyl)amino)pyrimidin-4-yl)-N-(pyrimidin-5-yl)imidazo [1,2-a]pyridin-6-amine] | 8 | 0.025 | 23 | 15 | 39 | 0.064 ± 0.017 | – | – | –
Cc1cnc(NC2CCC(F)(F)CC2)nc1-c1cnc2ccccn12 [Compound 156, N-(4,4-Difluorocyclohexyl)-4-(imidazo[1,2-a]pyridin-3-yl)-5-methylpyrimidin-2-amine] | 51 | > 5 | 77 | 34 | 80 | 3.3 ± 0.31 | – | – | –
Cc1cnc(NC2CCC(F)(F)CC2)nc1-c1cnc2ccc(-c3ccccc3)cn12 [Compound 155, N-(4,4-Difluorocyclohexyl)-5-methyl-4-(6-phenylimidazo [1,2-a]pyridin-3-yl)pyrimidin-2-amine] | 96 | > 5 | 100 | 100 | 99 | 7 ± 2.03 | – | – | –
Cc1cnc(N[C@H]2CC[C@H](C)CC2)nc1-c1cnc2ccc(-c3ccccc3)cn12 [Compound 151, 5-Methyl-N-((1r,4r)-4-methylcyclohexyl)-4-(6-phenylimidazo[1,2-a]pyridin-3-yl)pyrimidin-2-amine] | 93 | > 5 | 96 | 87 | 94 | 8.643 ± 0.01 | – | – | –
Cc1cnc(N[C@H]2CC[C@H](N3CCC3)CC2)nc1-c1cnc2ccc(-c3ccccc3)cn12 [Compound 135, N-((1r,4r)-4-(Azetidin-1-yl)cyclohexyl)-5-methyl-4-(6-phenylimidazo[1,2-a]pyridin-3-yl)pyrimidin-2-amine] | 28 | 1.14 | 61 | 57 | 13 | 0.564 ± 0.047 | – | – | –
Fc1cnc(NC2CCNCC2)nc1-c1cnc2ccccn12 [Compound 21, 5-Fluoro-4-(imidazo[1,2-a]pyridin-3-yl)-N-(piperidin-4-yl)pyrimidin-2-amine] | -11 | 0.069 | – | – | – | 0.003 ± 0.001 | 0.479 | 0.6 | 0.321
Cc1cnc(N[C@H]2CC[C@H](C(=O)O)CC2)nc1-c1cnc2ccc(Nc3cncnc3)cn12 [Compound 158, (1r,4r)-4-((5-Methyl-4-(6-(pyrimidin-5-ylamino)imidazo [1,2-a]pyridin-3-yl)pyrimidin-2-yl)amino)cyclohexane-1-carboxylic acid] | 92 | 0.185 | 94 | 85 | 98 | > 10 | – | – | –
